Results from PubChem BioAssay AID1963853 (Molecular Pharmacology Branch, DTP, NCI, 2024).
“And” between values parts separate entries of the source, which are not always exact repeats. Equal entries are not always repeated.

Test system: 266295-075-R-J1-PDC spheroid viability
Test: Anticancer human tumor 266295-075-R-J1-PDC patient-derived head and neck squamous carcinoma cell line growth inhibition [POLQ]
Details: spheroids with HUVEC and MSC; for viability, T/C: stronger effect = lower value; active = viability on the fitted dose curve at most 10% of control; inactive = the rest
Summary of the method: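 Patient-derived tumour cells were co-cultured with HUVEC and mesenchymal stem cells as multicellular spheroids at 37 °C. They were treated with POLQ inhibitors (novobiocin, ART-558, RP6685) alone or combined with other agents. Top concentrations were at or near clinical Cmax (otherwise 10 microM; SN-38 at 1 microM), decreasing in half-log steps.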

[1] = curve of first compound, second compound 0.0316 µM
[2] = curve of first compound, second compound 0.1 µM
[3] = curve of first compound, second compound 0.316 µM
[4] = curve of first compound, second compound 1 µM
[5] = curve of first compound, second compound 3.16 µM
[6] = curve of first compound, second compound 10 µM
[7] = second compound 0.0316 µM, first compound 0.0316 µM
[8] = second compound 0.0316 µM, first compound 0.1 µM
[9] = second compound 0.0316 µM, first compound 0.316 µM
[10] = second compound 0.0316 µM, first compound 1 µM
[11] = second compound 0.0316 µM, first compound 3.16 µM
[12] = second compound 0.0316 µM, first compound 10 µM
[13] = second compound 0.1 µM, first compound 0.0316 µM
[14] = second compound 0.1 µM, first compound 0.1 µM
[15] = second compound 0.1 µM, first compound 0.316 µM
[16] = second compound 0.1 µM, first compound 1 µM
[17] = second compound 0.1 µM, first compound 3.16 µM
[18] = second compound 0.1 µM, first compound 10 µM
[19] = second compound 0.316 µM, first compound 0.0316 µM
[20] = second compound 0.316 µM, first compound 0.1 µM
[21] = second compound 0.316 µM, first compound 0.316 µM
[22] = second compound 0.316 µM, first compound 1 µM
[23] = second compound 0.316 µM, first compound 3.16 µM
[24] = second compound 0.316 µM, first compound 10 µM
[25] = second compound 1 µM, first compound 0.0316 µM
[26] = second compound 1 µM, first compound 0.1 µM
[27] = second compound 1 µM, first compound 0.316 µM
[28] = second compound 1 µM, first compound 1 µM
[29] = second compound 1 µM, first compound 3.16 µM
[30] = second compound 1 µM, first compound 10 µM
[31] = second compound 3.16 µM, first compound 0.0316 µM
[32] = second compound 3.16 µM, first compound 0.1 µM
[33] = second compound 3.16 µM, first compound 0.316 µM
[34] = second compound 3.16 µM, first compound 1 µM
[35] = second compound 3.16 µM, first compound 3.16 µM
[36] = second compound 3.16 µM, first compound 10 µM
[37] = second compound 10 µM, first compound 0.0316 µM
[38] = second compound 10 µM, first compound 0.1 µM
[39] = second compound 10 µM, first compound 0.316 µM
[40] = second compound 10 µM, first compound 1 µM
[41] = second compound 10 µM, first compound 3.16 µM
[42] = second compound 10 µM, first compound 10 µM
[43] = second compound 0.0316 µM, first compound 0.00316 µM
[44] = second compound 0.0316 µM, first compound 0.01 µM
[45] = second compound 0.1 µM, first compound 0.00316 µM
[46] = second compound 0.1 µM, first compound 0.01 µM
[47] = second compound 0.316 µM, first compound 0.00316 µM
[48] = second compound 0.316 µM, first compound 0.01 µM
[49] = second compound 1 µM, first compound 0.00316 µM
[50] = second compound 1 µM, first compound 0.01 µM
[51] = second compound 3.16 µM, first compound 0.00316 µM
[52] = second compound 3.16 µM, first compound 0.01 µM
[53] = second compound 10 µM, first compound 0.00316 µM
[54] = second compound 10 µM, first compound 0.01 µM
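Note: spheroids exposed to compounds for seven days before readout.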

COc1cc2cc(C(=O)CCC(=O)O)sc2cc1OC + Nc1ccc(C#CCN(C(=O)Cc2ncc(C(F)(F)F)cc2C(F)(F)F)c2ccc(F)cc2)nn1
> 10 µM: IC50 [1] | IC50 [2] | IC50 [3] | IC50 [4] | IC50 [5] | IC50 [6]
inactive: viability, T/C [7] 119% | viability, T/C [8] 81% | viability, T/C [9] 82.3% | viability, T/C [10] 89.5% | viability, T/C [11] 94.8% | viability, T/C [12] 99.7% | viability, T/C [13] 101% | viability, T/C [14] 87.7% | viability, T/C [15] 84.3% | viability, T/C [16] 127% | viability, T/C [17] 82.2% | viability, T/C [18] 80.6% | viability, T/C [19] 109% | viability, T/C [20] 112% | viability, T/C [21] 104% | viability, T/C [22] 79.8% | viability, T/C [23] 104% | viability, T/C [24] 79.1% | viability, T/C [25] 86.4% | viability, T/C [26] 106% | viability, T/C [27] 102% | viability, T/C [28] 83% | viability, T/C [29] 117% | viability, T/C [30] 90.9% | viability, T/C [31] 105% | viability, T/C [32] 106% | viability, T/C [33] 98.9% | viability, T/C [34] 81.8% | viability, T/C [35] 85.7% | viability, T/C [36] 104% | viability, T/C [37] 82.5% | viability, T/C [38] 83.7% | viability, T/C [39] 86.4% | viability, T/C [40] 102% | viability, T/C [41] 87.5% | viability, T/C [42] 88%

O=c1[nH]cc(F)c(=O)[nH]1 + Cc1cccc(N(C)C(=O)C2C(O)CCN2c2nc(C)cc(C(F)(F)F)c2C#N)c1
inactive: viability, T/C [7] 87.9% | viability, T/C [8] 81% | viability, T/C [9] 101% | viability, T/C [10] 92.1% | viability, T/C [11] 77.8% | viability, T/C [12] 85.1% | viability, T/C [13] 120% | viability, T/C [14] 87.6% | viability, T/C [15] 84.3% | viability, T/C [16] 99.7% | viability, T/C [17] 104% | viability, T/C [18] 83.1% | viability, T/C [19] 77.2% | viability, T/C [20] 99.8% | viability, T/C [21] 90.6% | viability, T/C [22] 92.6% | viability, T/C [23] 92.4% | viability, T/C [24] 63.5% | viability, T/C [25] 98.5% | viability, T/C [26] 97.9% | viability, T/C [27] 95.2% | viability, T/C [28] 97.7% | viability, T/C [29] 99.5% | viability, T/C [30] 96.9% | viability, T/C [31] 105% | viability, T/C [32] 98.9% | viability, T/C [33] 102% | viability, T/C [34] 136% | viability, T/C [35] 95.4% | viability, T/C [36] 73.8% | viability, T/C [37] 89.8% | viability, T/C [38] 96.8% | viability, T/C [39] 110% | viability, T/C [40] 94.3% | viability, T/C [41] 92.9% | viability, T/C [42] 71.6%
> 10 µM: IC50 [1] | IC50 [2] | IC50 [3] | IC50 [4] | IC50 [5] | IC50 [6]

CCc1c2c(nc3ccc(O)cc13)-c1cc3c(c(=O)n1C2)COC(=O)[C@]3(O)CC + COC1C(OC(N)=O)C(O)C(Oc2ccc3c(O)c(NC(=O)c4ccc(O)c(CC=C(C)C)c4)c(=O)oc3c2C)OC1(C)C
> 1 µM: IC50 [1] | IC50 [2] | IC50 [3] | IC50 [4] | IC50 [5] | IC50 [6]
inactive: viability, T/C [43] 91% | viability, T/C [44] 109% | viability, T/C [7] 89.8% | viability, T/C [8] 105% | viability, T/C [9] 96.7% | viability, T/C [10] 70.2% | viability, T/C [45] 90.1% | viability, T/C [46] 99.2% | viability, T/C [13] 86.6% | viability, T/C [14] 103% | viability, T/C [15] 108% | viability, T/C [16] 79.3% | viability, T/C [47] 99.7% | viability, T/C [48] 82.9% | viability, T/C [19] 85.6% | viability, T/C [20] 109% | viability, T/C [21] 100% | viability, T/C [22] 69.7% | viability, T/C [49] 93.5% | viability, T/C [50] 79.2% | viability, T/C [25] 91.1% | viability, T/C [26] 94.5% | viability, T/C [27] 99.5% | viability, T/C [28] 69.9% | viability, T/C [51] 84.4% | viability, T/C [52] 90.6% | viability, T/C [31] 97.9% | viability, T/C [32] 104% | viability, T/C [33] 96.8% | viability, T/C [34] 65.5% | viability, T/C [53] 89.5% | viability, T/C [54] 89% | viability, T/C [37] 107% | viability, T/C [38] 112% | viability, T/C [39] 106% | viability, T/C [40] 55.4%

C=CC(=O)N1CCN(c2nc(=O)n(-c3c(C)ccnc3C(C)C)c3nc(-c4c(O)cccc4F)c(F)cc23)C(C)C1 (stereo unspecified)
> 10 µM: IC50 (curve of compound)
inactive: viability, T/C (compound 0.0316 µM) 85.8% and 77.5% and 104% | viability, T/C (compound 0.1 µM) 98.6% and 98% and 100% | viability, T/C (compound 0.316 µM) 100% and 98.1% and 101% | viability, T/C (compound 1 µM) 104% and 95.8% and 112% | viability, T/C (compound 3.16 µM) 120% and 102% and 128% | viability, T/C (compound 10 µM) 110% and 129% and 93.2%

COc1cc(C2c3cc4c(cc3C(OC3OC5COC(C)OC5C(O)C3O)C3COC(=O)C23)OCO4)cc(OC)c1O (stereo unspecified) + Cc1cccc(N(C)C(=O)C2C(O)CCN2c2nc(C)cc(C(F)(F)F)c2C#N)c1
> 10 µM: IC50 [1] | IC50 [2] | IC50 [3] | IC50 [4] | IC50 [5] | IC50 [6]
inactive: viability, T/C [7] 83.3% | viability, T/C [8] 75.2% | viability, T/C [9] 82.2% | viability, T/C [10] 75.8% | viability, T/C [11] 75.3% | viability, T/C [12] 64.9% | viability, T/C [13] 78.8% | viability, T/C [14] 82.2% | viability, T/C [15] 72.5% | viability, T/C [16] 69.4% | viability, T/C [17] 70.7% | viability, T/C [18] 70.2% | viability, T/C [19] 96.5% | viability, T/C [20] 73.1% | viability, T/C [21] 73.9% | viability, T/C [22] 76.3% | viability, T/C [23] 73.1% | viability, T/C [24] 57.9% | viability, T/C [25] 86.1% | viability, T/C [26] 95.4% | viability, T/C [27] 82% | viability, T/C [28] 86.2% | viability, T/C [29] 73.4% | viability, T/C [30] 68.1% | viability, T/C [31] 85.8% | viability, T/C [32] 76.2% | viability, T/C [33] 77.5% | viability, T/C [34] 68.5% | viability, T/C [35] 68.1% | viability, T/C [36] 62.8% | viability, T/C [37] 101% | viability, T/C [38] 72.5% | viability, T/C [39] 69.2% | viability, T/C [40] 72.2% | viability, T/C [41] 72.5% | viability, T/C [42] 60%

COc1cccc(OCCCN)c1-c1cc(Nc2cnc(C#N)cn2)n[nH]1 + Cc1cccc(N(C)C(=O)C2C(O)CCN2c2nc(C)cc(C(F)(F)F)c2C#N)c1
inactive: viability, T/C [43] 128% | viability, T/C [44] 127% | viability, T/C [7] 87.2% | viability, T/C [8] 80% | viability, T/C [9] 81.7% | viability, T/C [10] 72% | viability, T/C [45] 101% | viability, T/C [46] 101% | viability, T/C [13] 83.3% | viability, T/C [14] 76.3% | viability, T/C [15] 79.1% | viability, T/C [16] 62% | viability, T/C [47] 109% | viability, T/C [48] 90.7% | viability, T/C [19] 68% | viability, T/C [20] 71.1% | viability, T/C [21] 72.1% | viability, T/C [22] 63.9% | viability, T/C [49] 127% | viability, T/C [50] 85.5% | viability, T/C [25] 89.8% | viability, T/C [26] 75.1% | viability, T/C [27] 66.7% | viability, T/C [28] 50.1% | viability, T/C [51] 106% | viability, T/C [52] 101% | viability, T/C [31] 77.7% | viability, T/C [32] 77.7% | viability, T/C [33] 75.2% | viability, T/C [34] 64.8% | viability, T/C [53] 107% | viability, T/C [54] 108% | viability, T/C [37] 81.5% | viability, T/C [38] 74.3% | viability, T/C [39] 58.5% | viability, T/C [40] 75.3%
0.985 µM: IC50 [4]
> 1 µM: IC50 [1] | IC50 [2] | IC50 [3] | IC50 [5] | IC50 [6]

Nc1ccc(C#CCN(C(=O)Cc2ncc(C(F)(F)F)cc2C(F)(F)F)c2ccc(F)cc2)nn1
inactive: viability, T/C (compound 0.316 µM) 102% [middle of 13 runs] | viability, T/C (compound 3.16 µM) 95.5% [middle of 13 runs] | viability, T/C (compound 10 µM) 96.3% [middle of 13 runs]
> 10 µM: IC50 (compound alone, run of 11/06/2023)
